Source: patent US12449415B2, “Diagnostics” (Queen Mary University of London, priority 2014, dated 2025)

Tests used:
Assay type in all cases: cell-based, human
heparinised whole blood [1] = experiment: D-serine biosensor recording of D-serine release in whole blood; details: 1 ml heparinised whole blood, 37° C.; FIG. 3
Experimental: (§1) The ATP sensors comprised two enzymes, glycerol kinase and glycerol-3-phosphate Oxidase, the adenosine sensor comprised of three enzymes, adenosine deaminase, nucleoside phosphorylase, and xanthine oxidase while the glutamate sensor contained glutamate oxidase. The D-Serine sensor contained D-amino acid oxidase. The ATP sensor had to be stored in 1M glycerol solution for 30 min to be able to operate.
(§2) 1.5 ml of the prepared sample (whole blood or isolated neutrophils in PBS/glucose) was pipetted into the temperature controlled chamber with a micro-magnetic stirrer for 5 minutes before the sensors were inserted. The sensors were held on a stereotaxic micro-manipulator with the entire sensing tip inserted in the sample, ensuring maximum analyte detection probability. Recordings were done with either all sensors simultaneously or with various combinations according to the sensor availability and aim of the experiment. […] After any detected response signal levelled off, the calibrations were carried out. […]
Samples of whole blood from human patients were analysed using the Sarissagold D-Serine sensor.
(§3) PMA was added to 1 ml heparinised whole blood maintained at 37° C. […] A null sensor measured non-specific release of oxygen reactive species. […]

heparinised whole blood [2] = experiment: Acetylcholine biosensor recording of acetylcholine release in whole blood; details: 1 ml heparinised whole blood, 37° C.; FIG. 4
Experimental: 1.5 ml of the prepared sample (whole blood or isolated neutrophils in PBS/glucose) was pipetted into the temperature controlled chamber with a micro-magnetic stirrer for 5 minutes before the sensors were inserted. The sensors were held on a stereotaxic micro-manipulator with the entire sensing tip inserted in the sample, ensuring maximum analyte detection probability. Recordings were done with either all sensors simultaneously or with various combinations according to the sensor availability and aim of the experiment. Once a steady-state baseline was achieved, 100 nM of PMA or opsonised E. coli were added to the chamber, avoiding contact with the sensors to limit the noise interference. After any detected response signal levelled off, the calibrations were carried out. A control run was always carried out for each experiment where only PMA/E. coli was applied followed by a calibration. The chamber and the sensors were rinsed with PBS or distilled water before every run.
Samples of whole blood from human patients were analysed using the Sarissagold acetylcholine sensor.
PMA was added to 1 ml heparinised whole blood maintained at 37° C. (as indicated by PMA in FIG. 4). A null sensor measured non-specific release of oxygen reactive species. The accetylcholine sensor detects acetylcholine release in real time. The tips of the sensors were 2 mm under the surface of the blood. […]

heparinised whole blood [3] = experiment: Glutamate biosensor recording of glutamate release in stimulated whole blood
Experimental: Recordings were carried out in a custom made chamber (1.7 ml maximum volume) and the temperature of the chamber was controlled by a Circulator C-85D. The sensors were connected to a Due-Stat ME200+ potentiostat (Sycopel International Ltd, Jarrow, UK) which was then connected to a Power 1401 interface for processing of the signal. The operating potential for Sarissaprobes was +600 mV and −50 mV for Sarissagold sensors (switched to +600 m V when not operating). The recordings were analysed by Spike2 software.
Blood was collected from patients or from healthy volunteers and stored in heparinised vials (local ethics approved). The samples were kept on ice and were tested within 1 h of collection. […]
Unless stated otherwise, samples of whole blood from human patients were analysed using the Sarissaprobes and Sarissagold glutamate sensors. […]

heparinised whole blood [4] = experiment: ATP biosensor recording of ATP release in whole blood; details: 1 ml heparinised whole blood, 37° C.; FIG. 2
Experimental: as §1, §2
Samples of whole blood from human patients were analysed using the Sarissagold ATP sensor.
as §3

isolated neutrophils = experiment: Glutamate biosensor recording of PMA-stimulated glutamate release, glutamate antagonist experiment (FIG. 1E)
Experimental: Neutrophil preparation from 15 ml of whole blood was achieved by first adding 30 ml PBS under sterile conditions. Half of the PBS/Blood mix was carefully layered on a 15 ml layer of Ficoll-Paque Plus solution in two separate 50 ml falcons using an electronic pipette. The sample was then centrifuged at 1400 rpm at room temp for 30 minutes. 15 ml of sterile blood lysis buffer was added to the pellet centrifuged at 1200 rpm, undergoing 2 lysis cycles. The remaining pellet was washed with sterile PBS, resuspended in 10 ml PBS and the cells were counted. 10 mmol/L of glucose (plasma concentration) was then added in the sample. […]
The sensors were calibrated after every run with stock solutions: 20 μM (in neutrophils) or 40 μM (in blood) of glutamate, <<insert for lactate>> 1 μM (in neutrophils) or 10 μM (in blood) of D-Serine, 10 μM (in neutrophils) or (13.3 μM) of ATP and 0.748 μM adenosine in blood only. To convert changes in the sensor current to changes in the analyte concentrations, the midpoint of the calibration signal at the end of each run and the midpoint of the peak of the net responses (measured from the extrapolated baseline) were used. […]
This experiment was carried out using isolated neutrophils or whole blood from a patient. […] A null sensor measured non-specific release of oxygen reactive species. […]

| SMILES | response recorded using the D-serine sensor after addition of the stimulus (heparinised whole blood [1]) | response recorded using the acetylcholine sensor after addition of the stimulus (heparinised whole blood [2]) | response recorded using the glutamate sensor after addition of the stimulus (heparinised whole blood [3]; 1 ml heparinised whole blood, 37° C., FIG. 1A/1B) | glutamate release on subsequent stimulation (heparinised whole blood [3]; PMA added 5 minutes after opsonised E. coli, FIG. 1C) | response recorded using the ATP sensor after addition of the stimulus (heparinised whole blood [4]) | release of glutamate (isolated neutrophils; PMA added to 1 ml heparinised whole blood (so in the source), no antagonist) [μm] | PMA-stimulated glutamate release in the presence of the antagonist (isolated neutrophils; isolated neutrophils, antagonist 100 μM added 1 minute before PMA) |
| --- | --- | --- | --- | --- | --- | --- | --- |
| CCCCCCCCCCCCCC(=O)O[C@@H]1[C@@H](C)[C@@]2(O)[C@@H](C=C(CO)C[C@]3(O)C(=O)C(C)=C[C@@H]23)[C@@H]2C(C)(C)[C@]12OC(C)=O [PMA, phorbol myristate acetate] | led to an increase in the response | led to an increase in the response | led to an increase in the response | failed to increase glutamate release | led to an increase in the response | ~15 | – |
| Cc1ccc(CC2(O)CCN(CCOc3ccc(O)cc3)CC2)cc1 [CO101244] | – | – | – | – | – | – | failed to increase glutamate release |
